Values belong to the molecule of their own block, whether it stands above or below them.
Assays:
[1] = molecular target: T1, Epidermal growth factor receptor (Homo sapiens, UniProt P00533); assay: Inhibition of tyrosine kinase activity of Epidermal growth factor receptor from human A431 carcinoma cells
[2] = molecular target: T1, Epidermal growth factor receptor; assay: Inhibition of tyrosine kinase activity of Epidermal growth factor receptor from human A431 cells
[3] = molecular target: Fibroblast growth factor receptor (Homo sapiens, UniProt P22607+P11362+P22455+P21802); assay: Inhibition of Fibroblast growth factor receptor; format: protein assay
Insulin receptor = Insulin receptor (Homo sapiens, UniProt P06213); assay: Inhibition of Insulin receptor.
[4] = Inhibition of Platelet-derived growth factor receptor
Protein kinase C (PKC) = assay: Inhibition of Protein kinase C; format: protein assay
[5] = molecular target: Fibroblast growth factor receptor (Mus musculus, UniProt P21803+Q03142+P16092+Q61851); assay: Inhibition of FGF-mediated mitogenesis in Swiss 3T3 cells; format: functional, cell-based
[6] = molecular target: Platelet-derived growth factor receptor (Mus musculus, UniProt P05622+P26618); assay: Inhibition of PDGF-mediated mitogenesis in Swiss 3T3 cells; format: functional, cell-based
[7] = molecular target: Proto-oncogene tyrosine-protein kinase Src (Homo sapiens, UniProt P12931); assay: Inhibition of c-src enzyme.
[8] = Inhibitory activity against v-src enzyme.

T1 sequence (P00533 whole entry): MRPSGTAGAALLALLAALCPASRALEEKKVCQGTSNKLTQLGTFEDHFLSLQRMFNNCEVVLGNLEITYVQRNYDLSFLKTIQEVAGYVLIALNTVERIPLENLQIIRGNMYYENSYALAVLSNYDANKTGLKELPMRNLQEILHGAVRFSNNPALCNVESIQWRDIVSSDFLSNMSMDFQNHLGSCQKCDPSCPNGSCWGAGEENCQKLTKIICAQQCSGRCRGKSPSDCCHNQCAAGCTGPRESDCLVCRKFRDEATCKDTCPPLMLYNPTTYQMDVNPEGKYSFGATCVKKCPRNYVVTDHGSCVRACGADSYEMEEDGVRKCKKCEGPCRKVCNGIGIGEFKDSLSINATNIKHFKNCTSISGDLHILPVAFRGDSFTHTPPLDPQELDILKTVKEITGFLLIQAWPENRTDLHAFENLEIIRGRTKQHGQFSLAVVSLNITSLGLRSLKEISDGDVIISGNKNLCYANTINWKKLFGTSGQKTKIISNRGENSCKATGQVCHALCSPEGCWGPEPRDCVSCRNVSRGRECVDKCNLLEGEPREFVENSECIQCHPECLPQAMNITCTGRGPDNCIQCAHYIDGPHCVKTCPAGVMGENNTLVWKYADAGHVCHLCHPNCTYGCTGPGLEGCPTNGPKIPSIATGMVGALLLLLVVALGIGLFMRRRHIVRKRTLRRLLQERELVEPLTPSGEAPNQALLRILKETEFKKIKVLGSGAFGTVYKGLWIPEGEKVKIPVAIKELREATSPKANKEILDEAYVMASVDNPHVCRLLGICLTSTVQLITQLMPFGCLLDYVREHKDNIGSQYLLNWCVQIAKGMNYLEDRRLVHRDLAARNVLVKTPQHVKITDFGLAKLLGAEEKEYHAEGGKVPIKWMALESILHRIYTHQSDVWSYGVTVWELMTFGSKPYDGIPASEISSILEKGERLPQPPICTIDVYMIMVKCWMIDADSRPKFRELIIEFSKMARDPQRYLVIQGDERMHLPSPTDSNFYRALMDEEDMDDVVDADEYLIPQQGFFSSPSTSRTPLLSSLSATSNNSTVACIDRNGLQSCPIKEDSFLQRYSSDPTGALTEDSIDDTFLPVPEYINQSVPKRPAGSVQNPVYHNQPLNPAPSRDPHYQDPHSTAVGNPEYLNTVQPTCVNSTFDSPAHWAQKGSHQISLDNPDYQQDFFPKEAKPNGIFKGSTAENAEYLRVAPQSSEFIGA
Proto-oncogene tyrosine-protein kinase Src, sequence (P12931 2-536 limits assumed): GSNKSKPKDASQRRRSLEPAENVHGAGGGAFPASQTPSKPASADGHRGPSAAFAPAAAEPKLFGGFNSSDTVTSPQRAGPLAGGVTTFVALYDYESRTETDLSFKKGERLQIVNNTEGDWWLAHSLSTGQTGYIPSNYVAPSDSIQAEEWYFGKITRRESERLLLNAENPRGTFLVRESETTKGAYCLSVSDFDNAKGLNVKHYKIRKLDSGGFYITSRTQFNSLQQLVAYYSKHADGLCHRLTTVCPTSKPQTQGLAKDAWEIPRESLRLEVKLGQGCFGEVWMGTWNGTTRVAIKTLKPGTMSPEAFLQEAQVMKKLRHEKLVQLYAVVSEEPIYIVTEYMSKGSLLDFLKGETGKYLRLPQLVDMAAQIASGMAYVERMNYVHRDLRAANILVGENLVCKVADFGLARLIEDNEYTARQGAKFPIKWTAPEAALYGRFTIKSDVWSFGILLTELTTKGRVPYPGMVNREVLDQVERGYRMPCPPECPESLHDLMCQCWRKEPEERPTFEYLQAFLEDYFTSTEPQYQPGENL
Insulin receptor, sequence (P06213 28-758 limits assumed): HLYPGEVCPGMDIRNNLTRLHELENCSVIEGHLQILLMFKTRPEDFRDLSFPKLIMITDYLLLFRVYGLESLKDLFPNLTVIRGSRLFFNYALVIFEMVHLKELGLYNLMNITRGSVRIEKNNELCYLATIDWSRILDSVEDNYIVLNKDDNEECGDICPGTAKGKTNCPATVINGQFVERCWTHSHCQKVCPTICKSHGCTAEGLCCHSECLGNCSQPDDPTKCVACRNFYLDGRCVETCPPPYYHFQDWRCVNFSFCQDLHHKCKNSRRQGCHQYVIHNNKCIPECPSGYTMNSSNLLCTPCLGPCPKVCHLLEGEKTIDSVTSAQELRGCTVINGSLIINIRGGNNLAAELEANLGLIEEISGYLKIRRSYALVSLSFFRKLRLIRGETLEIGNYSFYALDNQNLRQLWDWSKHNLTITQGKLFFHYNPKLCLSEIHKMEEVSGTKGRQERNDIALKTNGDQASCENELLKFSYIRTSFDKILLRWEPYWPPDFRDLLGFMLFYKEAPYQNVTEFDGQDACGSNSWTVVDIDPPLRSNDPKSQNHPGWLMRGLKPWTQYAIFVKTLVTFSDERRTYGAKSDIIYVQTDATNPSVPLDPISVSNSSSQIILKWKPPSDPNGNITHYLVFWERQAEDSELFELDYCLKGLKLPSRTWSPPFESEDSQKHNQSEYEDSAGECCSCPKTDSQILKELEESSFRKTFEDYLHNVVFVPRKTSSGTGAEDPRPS
Insulin receptor, sequence (P06213 763-1382 limits assumed): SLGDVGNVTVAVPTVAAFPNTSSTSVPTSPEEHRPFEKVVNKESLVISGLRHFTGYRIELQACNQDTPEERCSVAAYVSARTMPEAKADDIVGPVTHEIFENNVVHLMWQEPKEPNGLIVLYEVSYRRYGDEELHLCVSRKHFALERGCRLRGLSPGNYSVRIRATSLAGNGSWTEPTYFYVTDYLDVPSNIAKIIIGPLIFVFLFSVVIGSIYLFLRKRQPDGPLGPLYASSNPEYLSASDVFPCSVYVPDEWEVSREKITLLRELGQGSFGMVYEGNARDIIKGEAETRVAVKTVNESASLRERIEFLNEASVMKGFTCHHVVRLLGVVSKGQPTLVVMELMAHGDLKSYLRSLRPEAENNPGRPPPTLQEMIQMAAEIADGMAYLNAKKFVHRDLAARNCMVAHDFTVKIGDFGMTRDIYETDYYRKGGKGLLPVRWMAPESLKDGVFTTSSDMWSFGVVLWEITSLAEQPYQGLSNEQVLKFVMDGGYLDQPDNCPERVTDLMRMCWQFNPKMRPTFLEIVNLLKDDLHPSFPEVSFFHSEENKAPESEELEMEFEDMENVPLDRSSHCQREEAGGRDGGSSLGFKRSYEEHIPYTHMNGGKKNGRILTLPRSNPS

Compound: Brc1cccc(Nc2ncnc3cc4[nH]ccc4cc23)c1
IC50 [1]: 0.44 nM

Compound: Cc1nc2cc3ncnc(Nc4cccc(Br)c4)c3cc2[nH]1
IC50 [1]: 0.29 nM

Compound: Brc1cccc(Nc2ncnc3cc4ncsc4cc23)c1
IC50 [1]: 44 nM

Compound: Brc1cccc(Nc2ncnc3cc4[nH]cnc4cc23)c1
IC50 [3]: > 50 µM
IC50 (Insulin receptor): > 50 µM
IC50 [4]: > 50 µM
IC50 (Protein kinase C (PKC)): > 50 µM
IC50 [5]: > 50 µM
IC50 [6]: > 50 µM
IC50 [7]: > 50 µM
IC50 [8]: > 50 µM

Compound: CN(C)CCn1cnc2c(Cl)c3c(Nc4cccc(Br)c4)ncnc3cc21
IC50 [2]: 203 nM

Compound: Brc1cccc(Nc2ncnc3cc4cn[nH]c4cc23)c1
IC50 [2]: 0.34 nM

Compound: Brc1cccc(Nc2ncnc3c2ccc2[nH]cnc23)c1
IC50 [1]: 272 nM

Compound: Brc1cccc(Nc2ncnc3cc4[nH]nnc4cc23)c1
IC50 [2]: 4.1 nM

Compound: Cn1cnc2cc3ncnc(Nc4cccc(Br)c4)c3cc21
IC50 [1]: 0.01 nM

More lines, now with the values ahead:

IC50 [2]: 1.32 nM
Compound: CN(C)CCn1cnc2cc3ncnc(Nc4cccc(Br)c4)c3cc21

IC50 [2]: 22 nM
Compound: CN(C)CCn1cnc2cc3c(Nc4cccc(Br)c4)ncnc3cc21

IC50 [1]: 1.24 nM
Compound: Brc1cccc(Nc2ncnc3ccc4cc[nH]c4c23)c1

IC50 [1]: 0.003 nM
Compound: Brc1cccc(Nc2ncnc3cc4ccccc4cc23)c1

IC50 [2]: 0.44 nM
Compound: Brc1cccc(Nc2ncnc3cc4[nH]ncc4cc23)c1

Reference: ChEMBL document CHEMBL1129035, “Tyrosine kinase inhibitors. 9. Synthesis and evaluation of fused tricyclic quinazoline analogues as ATP site inhibitors of the tyrosine kinase activity of the epidermal growth factor receptor” (J Med Chem, 1996)
